Literature values in patent US20120115783A1, “PEPTIDOMIMETIC MACROCYCLES” (Alleron therapeutics, Inc, priority 2008, published 2012).

Test system: HCT116 tumour xenografts

CN1C(=O)[C@]2(Cc3cn([C@]45C[C@@]67SS[C@@](CO)(C(=O)N6[C@H]4Nc4ccccc45)N(C)C7=O)c4ccccc34)SS[C@@]1(CO)C(=O)N2C [chetomin]
growth of HCT116 tumour xenografts (HCT116 tumour xenografts): inhibited their growth | hypoxia-inducible transcription within HCT116 tumour xenografts (within HCT116 tumour xenografts, pharmacological inhibition of HIF-1α): inhibited hypoxia-inducible transcription
